The text below walks through data of patent US8569339B2, “Soluble guanylate cyclase activators” (Boehringer Ingelheim International GmbH, priority 2011, dated 2013).

pEC50: −log10 of the molar value. In brackets after ≈: the same amount, converted by molar mass. Several values for one entry are separate records, joined by “and”; a condition that tells them apart may be missing. Equal values may be shown once.

Data set [1] deals with T1, Recombinant human soluble guanylate cyclase (sGC) (Homo sapiens, UniProt Q02153).
T1 construct: histidine tag (C); made in house; host or cells: Sf9 insect cells (baculovirus coinfection)
T1 sequence (Q02108 whole entry partner): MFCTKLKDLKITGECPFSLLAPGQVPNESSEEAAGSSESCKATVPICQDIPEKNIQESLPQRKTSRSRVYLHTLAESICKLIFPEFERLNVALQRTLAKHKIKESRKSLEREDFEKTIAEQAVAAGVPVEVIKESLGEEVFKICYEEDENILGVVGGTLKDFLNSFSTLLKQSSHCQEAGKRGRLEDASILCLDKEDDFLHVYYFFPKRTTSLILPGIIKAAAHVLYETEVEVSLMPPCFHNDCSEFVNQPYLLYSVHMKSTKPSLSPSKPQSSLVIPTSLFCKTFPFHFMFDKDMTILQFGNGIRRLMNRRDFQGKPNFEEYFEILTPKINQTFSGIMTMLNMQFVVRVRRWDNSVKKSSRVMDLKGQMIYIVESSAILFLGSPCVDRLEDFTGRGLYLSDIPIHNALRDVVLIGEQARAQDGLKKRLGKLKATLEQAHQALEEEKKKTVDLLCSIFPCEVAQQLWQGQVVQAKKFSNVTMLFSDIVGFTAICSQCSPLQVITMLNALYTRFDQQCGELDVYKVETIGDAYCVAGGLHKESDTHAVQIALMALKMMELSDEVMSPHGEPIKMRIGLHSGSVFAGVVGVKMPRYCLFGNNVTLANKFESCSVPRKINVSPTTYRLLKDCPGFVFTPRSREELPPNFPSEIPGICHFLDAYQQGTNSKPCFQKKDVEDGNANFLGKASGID
T1 sequence (Q02153 whole entry): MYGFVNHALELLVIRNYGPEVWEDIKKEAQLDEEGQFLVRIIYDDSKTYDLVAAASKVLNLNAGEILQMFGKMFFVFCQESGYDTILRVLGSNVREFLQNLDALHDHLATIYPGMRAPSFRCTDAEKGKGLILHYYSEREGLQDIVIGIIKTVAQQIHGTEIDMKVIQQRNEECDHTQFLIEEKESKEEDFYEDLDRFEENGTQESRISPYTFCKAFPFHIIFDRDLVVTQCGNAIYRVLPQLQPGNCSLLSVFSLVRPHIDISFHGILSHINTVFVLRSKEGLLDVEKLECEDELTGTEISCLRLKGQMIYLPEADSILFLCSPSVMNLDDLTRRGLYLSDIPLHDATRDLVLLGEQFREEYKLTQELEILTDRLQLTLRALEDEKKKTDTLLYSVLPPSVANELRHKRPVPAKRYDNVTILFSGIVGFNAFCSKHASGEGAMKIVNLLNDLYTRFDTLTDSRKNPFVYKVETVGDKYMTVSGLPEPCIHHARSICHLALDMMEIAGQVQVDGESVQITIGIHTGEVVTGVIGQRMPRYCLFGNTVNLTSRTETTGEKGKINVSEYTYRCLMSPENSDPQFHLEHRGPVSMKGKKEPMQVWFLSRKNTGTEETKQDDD
Briefly: Molecular assay: activation of heme-free sGC, cGMP detection (CisBio kit). In kind it is biochemical. Conditions: 300 pM heme-free sGC, 37° C., 60 minutes, cGMP formation. The gist of the method: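 Heme-free human α1/β1 sGC (His-tagged, Sf9-expressed, Tween 20-treated) at 300 pM incubated with compound in pH 6.8 MOPS buffer with 50 nM GTP, IBMX, 1% DMSO, 60 min at 37 °C. cGMP quantified by HTRF against a calibration curve; EC50 from combined undiluted and 80-fold diluted readings.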

Data set [2] in a line: Assessment of solubility (HT solubility, pION, UV). In kind it is physicochemical. The settings on record: incubated 16-19 hours, 1.0% DMSO, 100 uM; for solubility kinetic: pH 4.5 buffer (pION system solution), pH 4.5, aqueous buffer, kinetic from dmso stock, read-out: Sol pH 4.5; for solubility kinetic / Sol pH 4.5: pH 4.5 buffer; for Sol pH 7.4: pH 7.4 buffer. The gist of the method:
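Compounds were taken from 10 mM DMSO stocks into pH 4.5 or pH 7.4 buffer at 100 uM final (1.0% DMSO), run in duplicate, and incubated sealed for 16-19 h. Filtrates were diluted with N-propanol and read by UV at 250-498 nm against blank and reference spectra, […].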

As usually defined, the pEC50 is the negative decadic logarithm of the EC50, by convention in mol/L. Turning to `Cc1cc(CN2CCc3cc(COc4c(C)cccc4-c4cccc(-c5ncc(C(=O)O)n5C)n4)ccc3C2)no1` [Compound 72], the pEC50 in data set [1] was 7.57. In data set [2], the solubility kinetic is over 67 µg/mL and the “Sol pH 7.4” value is over 67 μg/mL.

`Cc1cccc(-c2cccc(-c3ncc(C(=O)O)n3C)n2)c1OCc1ccc2c(c1)CCN(CC1CCCOC1)C2` (centres unmarked) [Compound 73]: the pEC50 in data set [1] is 7.33. Further, in data set [2], the solubility kinetic is over 67 µg/mL; the “Sol pH 4.5” value is on record as over 66 μg/mL; the “Sol pH 7.4” value is >67 μg/mL and >66 μg/mL.

With `Cc1cccc(-c2cccc(-c3ncc(C(=O)O)n3C)n2)c1OCc1ccc2c(c1)CCN(C1CCC(F)(F)CC1)C2` [Compound 74], the pEC50 in data set [1] is 7.57. In addition, in data set [2], the solubility kinetic is over 66 µg/mL; the “Sol pH 4.5” value was over 68 μg/mL; the “Sol pH 7.4” value is >66 μg/mL and >68 μg/mL.

In the case of `Cc1cccc(-c2cccc(-c3ncc(C(=O)O)n3C)n2)c1OCc1ccc2c(c1)CCN(C1CCCOC1)C2` (centres unmarked) [Compound 75], the pEC50 in data set [1] is 6.76. For the same compound, in data set [2], the solubility kinetic is over 65 µg/mL and the “Sol pH 7.4” value is over 65 μg/mL.

Turning to `Cc1cccc(-c2cccc(-c3ncc(C(=O)O)n3C)n2)c1OCc1ccc2c(c1)CCN(C1CCCCCC1)C2` [Compound 76], the pEC50 in data set [1] was 7.00. Moreover, in data set [2], the solubility kinetic is over 66 µg/mL and the “Sol pH 7.4” value is on record as over 66 μg/mL.

Regarding `Cc1ccc(OCc2ccc3c(c2C)CCN(C)C3)c(-c2cccc(-c3c(C)c(C(=O)O)nn3C)n2)c1` [Compound 78], the pEC50 in data set [1] was 6.01. Further, in data set [2], the solubility kinetic worked out at 24.1 µg/mL (≈ 48.5 µM) and the “Sol pH 7.4” value was found to be 24.2 μg/mL.

Regarding `Cc1ccc(OCc2ccc3c(c2)CCN(C2CCOCC2)C3)c(-c2cccc(-c3c(C)c(C(=O)O)nn3C)n2)c1` [Compound 79], the pEC50 in data set [1] is 5.92. Besides, in data set [2], the solubility kinetic is over 80 µg/mL and the “Sol pH 7.4” value is given as over 80 μg/mL.

For `Cc1ccc(OCc2ccc3c(c2C)CCN(C2CCOCC2)C3)c(-c2cccc(-c3c(C)c(C(=O)O)nn3C)n2)c1` [Compound 80], the pEC50 in data set [1] was 6.81. In data set [2], the solubility kinetic was over 81 µg/mL and the “Sol pH 7.4” value is over 81 μg/mL.

For `Cc1cccc(-c2cccc(-c3c(C)c(C(=O)O)nn3C)n2)c1OCc1ccc2c(c1)CCN(C1CCOCC1)C2` [Compound 81], the pEC50 in data set [1] is 6.73. Moreover, in data set [2], the solubility kinetic was determined as 48.4 µg/mL (≈ 87.6 µM) and the “Sol pH 7.4” value came to 31.7 μg/mL.

Regarding `CCn1nc(C(=O)O)c(C)c1-c1cccc(-c2cccc(C)c2OCc2ccc3c(c2)CCN(C2CCOCC2)C3)n1` [Compound 82], the pEC50 in data set [1] was 6.68. Further, in data set [2], the solubility kinetic was over 67 µg/mL and the “Sol pH 7.4” value is on record as over 67 μg/mL.

In the case of `Cc1cccc(-c2cccc(-c3c(C)c(C(=O)O)nn3C(C)C)n2)c1OCc1ccc2c(c1)CCN(C1CCOCC1)C2` [Compound 83], in data set [1], the pEC50 is 7.30. Moreover, in data set [2], the solubility kinetic was over 69 µg/mL and the “Sol pH 7.4” value is on record as over 69 μg/mL.

For the compound `Cc1cccc(-c2cccc(-c3c(C)c(C(=O)O)nn3C(C)(C)C)n2)c1OCc1ccc2c(c1)CCN(C1CCOCC1)C2` [Compound 84], the pEC50 in data set [1] is 7.16. Moreover, in data set [2], the solubility kinetic is over 70 µg/mL and the “Sol pH 7.4” value is recorded as over 70 μg/mL.

In the case of `Cc1cccc(-c2cccc(-c3c(C)c(C(=O)O)nn3CCC(=O)O)n2)c1OCc1ccc2c(c1)CCN(C1CCOCC1)C2` [Compound 85], in data set [1], the pEC50 was 7.03. In data set [2], the solubility kinetic is over 60 µg/mL and the “Sol pH 7.4” value is on record as over 60 μg/mL.

`Cc1cccc(-c2cccc(-c3onc(C(=O)O)c3C)n2)c1OCc1ccc2c(c1)CCN(C1CCOCC1)C2` [Compound 86, 4-methyl-5-[6-[3-methyl-2-[(2-tetrahydropyran-4-yl-3,4-dihydro-1H-isoquinolin-6-yl)methoxy]phenyl]-2-pyridyl]isoxazole-3-carboxylic acid]: the pEC50 in data set [1] was 6.11. Besides, in data set [2], the solubility kinetic was over 65 µg/mL and the “Sol pH 7.4” value is given as over 65 μg/mL.

For the compound `Cc1cccc(-c2cccc(-c3c(C)c(C(=O)O)nn3CC(F)(F)F)n2)c1OCc1ccc2c(c1)CCN(C1CCOCC1)C2` [Compound 87], in data set [1], the pEC50 was 6.74. In data set [2], the solubility kinetic was 17.3 µg/mL (≈ 27.9 µM) and the “Sol pH 7.4” value stood at 14.1 μg/mL.

Regarding `Cc1cccc(-c2cccc(-c3c(C)c(C(=O)O)nn3C3CCOCC3)n2)c1OCc1ccc2c(c1)CCN(C1CCOCC1)C2` [Compound 89], the pEC50 in data set [1] is 6.15. Also, in data set [2], the solubility kinetic was 51.5 µg/mL (≈ 82.7 µM) and the “Sol pH 7.4” value is over 62 μg/mL.

Turning to `Cc1cccc(-c2cccc(-c3c(C)c(C(=O)O)nn3C3CC3)n2)c1OCc1ccc2c(c1)CCN(C1CCC(F)(F)CC1)C2` [Compound 90], the pEC50 in data set [1] is 7.82. Further, in data set [2], the solubility kinetic came to 49 µg/mL (≈ 80 µM) and the “Sol pH 7.4” value is listed as 50.2 μg/mL.

For `Cc1cccc(-c2cccc(-c3c(C)c(C(=O)O)nn3C3CC3)n2)c1OCc1ccc2c(c1)CCN(C1CCOCC1)C2` [Compound 91], in data set [1], the pEC50 is 6.80. In addition, in data set [2], the solubility kinetic is over 69 µg/mL and the “Sol pH 7.4” value was over 69 μg/mL.
